Experimental data from US9040509B2, “Method of treating human skin and a skin care composition for use in such a method” (Pantarhei Bioscience B.V., priority 2002, dated 2015).
Read-outs that look alike come from different tables or passages of the source.

Tests used:
human ERα = human ERα (Homo sapiens (Human), UniProt P03372); assay: Competitive steroid binding assay, recombinant human ERα, [3H]E2 as labeled ligand; conditions: Cheng and Prusoff from measured IC50
[1] = test system: rat uterine nuclear estrogen receptor; conditions: cited from earlier work
[2] = Elimination half-life after single subcutaneous administration in rats; format: in vivo; conditions: female, Sprague Dawley, rat; single sc dose 0.05, 0.5 or 5 mg/kg in arachidis oil; plasma
Method: To determine the in vivo stability of estetrol (E4) its elimination half-life in female Sprague Dawley rats was determined after a single subcutaneous administration (sc) at several dose levels.
Female Sprague Dawley rats were equipped with a permanent silatic heart catheter, as described by Kuipers et al. (1985, Gastroenterology, 88, 403-411). Rats were allowed to recover from surgery for 5 days and were than administered 0.05, 0.5, or 5 mg/kg E4 in 0.5 ml arachidis oil. E4 was injected in the neck area using a 1 ml syringe and 20 g needle. Blood samples were subsequently collected via the heart catheter in heparinized tubes at 0.5, 1, 2, 4, 8 and 24 hours. Erythrocytes were removed by centrifugation at 5000×g for 10 minutes at 4° C. and blood plasma was stored at −20° C. […] With each sample batch, a calibration curve with 6 calibrators was recorded. The calibration curve was calculated using linear regression (correlation coefficient>0.98), which permitted quantitation of plasma concentrations. […]
Plasma E4 concentration data were analysed with “WinNonLin, edition 3.1” and involved pharmacokinetic parameters for Cmax, AUC0-24 and half-life.

[3] = test system: rat uterine cytosol estrogen receptor; conditions: cited from earlier work
[4] = test system: estrogen receptor in the human endometrium; conditions: Tseng et al., cited from earlier work
uterine vasodilation = conditions: intravenously administered; cited from earlier work
human ERβ = human ERβ (Homo sapiens (Human), UniProt Q92731); assay: Competitive steroid binding assay, recombinant human ERβ, [3H]E2 as labeled ligand; conditions: Cheng and Prusoff from measured IC50
[5] = test system: human breast cancer cells (MCF-7); conditions: MCF-7, long term tissue culture; cited from earlier work
immature rat uterus = conditions: subcutaneously administered, Holinka et al., cited from earlier work
uterus = conditions: continuous administration from a subcutaneous depot; Martucci et al., 1977; cited from earlier work
[6] = intravenous, two adult women, cited from earlier work

human ERα, sequence (P03372 whole entry): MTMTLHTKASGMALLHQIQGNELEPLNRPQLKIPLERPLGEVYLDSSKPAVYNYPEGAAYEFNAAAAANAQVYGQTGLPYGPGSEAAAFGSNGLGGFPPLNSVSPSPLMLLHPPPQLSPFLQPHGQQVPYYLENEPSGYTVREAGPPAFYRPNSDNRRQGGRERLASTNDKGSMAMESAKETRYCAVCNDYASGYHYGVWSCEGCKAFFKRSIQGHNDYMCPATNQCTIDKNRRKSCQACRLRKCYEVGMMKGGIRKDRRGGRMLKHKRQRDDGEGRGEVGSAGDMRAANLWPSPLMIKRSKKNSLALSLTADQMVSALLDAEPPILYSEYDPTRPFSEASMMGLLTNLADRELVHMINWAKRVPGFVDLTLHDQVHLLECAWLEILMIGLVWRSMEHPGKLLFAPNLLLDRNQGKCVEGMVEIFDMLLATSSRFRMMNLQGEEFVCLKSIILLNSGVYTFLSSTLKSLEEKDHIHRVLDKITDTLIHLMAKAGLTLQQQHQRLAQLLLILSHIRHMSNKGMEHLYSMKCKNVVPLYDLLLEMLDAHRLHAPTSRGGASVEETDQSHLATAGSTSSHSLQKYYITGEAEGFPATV
human ERβ, sequence (Q92731 whole entry): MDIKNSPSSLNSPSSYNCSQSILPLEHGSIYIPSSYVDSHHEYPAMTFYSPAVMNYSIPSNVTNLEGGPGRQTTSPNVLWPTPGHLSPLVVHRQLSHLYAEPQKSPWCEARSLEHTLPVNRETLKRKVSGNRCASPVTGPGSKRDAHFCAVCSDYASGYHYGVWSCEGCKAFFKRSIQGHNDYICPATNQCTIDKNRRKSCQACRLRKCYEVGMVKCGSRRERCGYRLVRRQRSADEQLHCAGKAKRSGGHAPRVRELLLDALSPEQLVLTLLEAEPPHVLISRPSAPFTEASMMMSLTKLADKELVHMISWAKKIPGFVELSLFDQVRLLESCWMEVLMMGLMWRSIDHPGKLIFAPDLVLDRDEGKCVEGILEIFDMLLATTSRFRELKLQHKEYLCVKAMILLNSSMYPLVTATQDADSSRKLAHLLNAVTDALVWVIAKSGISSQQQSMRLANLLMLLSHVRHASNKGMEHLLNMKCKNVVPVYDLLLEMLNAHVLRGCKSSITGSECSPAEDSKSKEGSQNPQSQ

Ki (human ERα): 0.0049 µM | half-life [2]: 2 to 3 h | Ki (human ERβ): 0.019 µM
SMILES: C[C@]12CC[C@@H]3c4ccc(O)cc4CC[C@H]3[C@@H]1[C@@H](O)[C@@H](O)[C@@H]2O [E4, 1,3,5 (10)-estratrien-3,15α,16α,17β-tetrol]
relative binding affinity, of 17β-estradiol (100%) [1]: 0.3% | relative binding affinity, of 17β-estradiol (100%) [3]: 0.5% | relative binding constant compared to 17β-estradiol (100%) [4]; 1976: 6.25% | relative binding to estrogen receptors, of 17β-estradiol [4]; 1978: 1.5% | potency in uterine vasodilation, times less potent than estriol and 17β-estradiol (uterine vasodilation): 15 to 30 times | agonistic potency in in vitro cell proliferation relative to 17β-estradiol [5]: 2% | uterotrophic activity (immature rat uterus; 1979): very weak uterotrophic activity | uterotrophic activity (immature rat uterus; 1980): very weak uterotrophic activity | uterotrophic activity (uterus): very weak uterotrophic activity | excretion ([6]; urine): rapidly and completely excreted in urine as the glucosiduronate | metabolism [6]: virtually no metabolism except for conjugation took place
